Experimental data taken from patent US10351559B2, “Maleate salts of a B-RAF kinase inhibitor, crystalline forms, methods of preparation, and uses therefore” (BeiGene, Ltd., priority 2015, dated 2019).
Where a name gives a salt, the structure may show the parent alone.

Legend:
[1] = long-term stability study; assay type: physicochemical
EPHA2 = molecular target: T1, EPHA2 (Homo sapiens, UniProt P29317); assay: HTRF KinEASE-TK kinase assay; assay type: biochemical
T1 construct: purchased Carna Biosciences
T1 sequence (P29317 24-976): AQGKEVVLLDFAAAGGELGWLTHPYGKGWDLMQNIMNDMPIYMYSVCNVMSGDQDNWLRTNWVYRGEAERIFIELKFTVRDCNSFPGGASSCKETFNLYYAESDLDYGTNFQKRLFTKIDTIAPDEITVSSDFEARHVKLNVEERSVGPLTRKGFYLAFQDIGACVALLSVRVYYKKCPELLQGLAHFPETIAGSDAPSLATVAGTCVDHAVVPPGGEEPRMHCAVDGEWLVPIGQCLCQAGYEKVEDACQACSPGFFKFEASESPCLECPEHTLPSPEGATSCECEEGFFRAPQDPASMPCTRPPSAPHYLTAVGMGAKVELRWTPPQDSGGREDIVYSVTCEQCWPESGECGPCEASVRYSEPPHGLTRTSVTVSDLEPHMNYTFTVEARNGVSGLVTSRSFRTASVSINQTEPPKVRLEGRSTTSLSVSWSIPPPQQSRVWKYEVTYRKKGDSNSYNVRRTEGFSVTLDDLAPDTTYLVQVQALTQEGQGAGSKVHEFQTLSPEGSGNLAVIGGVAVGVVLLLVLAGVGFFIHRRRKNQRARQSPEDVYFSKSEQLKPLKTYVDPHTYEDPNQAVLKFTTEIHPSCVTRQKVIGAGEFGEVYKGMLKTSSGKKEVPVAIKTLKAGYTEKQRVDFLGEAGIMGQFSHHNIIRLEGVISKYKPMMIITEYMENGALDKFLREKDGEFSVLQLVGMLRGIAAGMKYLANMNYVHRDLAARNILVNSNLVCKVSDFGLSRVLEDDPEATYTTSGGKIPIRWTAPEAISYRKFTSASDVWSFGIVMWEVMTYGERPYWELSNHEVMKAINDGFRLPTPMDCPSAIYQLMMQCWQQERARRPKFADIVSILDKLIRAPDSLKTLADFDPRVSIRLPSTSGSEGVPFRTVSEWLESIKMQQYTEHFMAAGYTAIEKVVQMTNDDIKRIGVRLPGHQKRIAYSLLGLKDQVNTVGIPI
Procedure: (§1) Crystalline Form A* of Compound 1 Sesqui-Maleate was tested against recombinant EGFR/EPHA2/BTK (from Carna Biosciences), ITK/TEC/SRC/PDGFR-beta/TXK/FLT3/VEGFR2/RET (from Life Technologies), and HER2 (aa676-1255, recombinant protein purified from insect expression system) in HTRF KinEASE-TK assay from Cisbio Bioassays according to the manufacturer's instructions. The assay was carried out in a reaction mixture containing kinases, ATP at KM concentration, biotinylated peptide substrate (61TK0BLC, Cisbio Bioassays) and Crystalline Form A* of Compound 1 Sesqui-Maleate. The kinase was incubated with Crystalline Form A* of Compound 1 Sesqui-Maleate at RT for 1 hr or 2 hr (for EGFR) and the reaction was initiated by the addition of ATP and substrate. After reaction, stop/detection solution was added according to the manufacture's instruction. The stop/detection solution contained Eu+ cryptate conjugated antiphosphotyrosine antibody (61T66kLB, CisBio Bioassays) and Streptavidin-XL665 (610SAXLB, CisBio Bioassays) in buffer containing 25 mM Tris pH7.4, 400 mM KF, 50 mM EDTA, 0.01% BSA, 0.01% Triton X-100. The TR-FRET signals (ratio of fluorescence emission at 665 nm over emission at 620 nm with excitation at 337 nm wavelength) were recorded on a PHERAstar FS plate reader (BMG Labtech) after 1 hr incubation. Phosphorylation of biotinylated peptide substrate led to the binding of both Eu+ cryptate conjugated antiphosphotyrosine antibody and streptaviding-XL665 to the biotinylated peptide. The close proximity of the donor (Eu+ cryptate) and acceptor (XL665) fluorophore led to a high degree of fluorescence resonance energy transfer from the donor fluorophore (at 620 nm) to the acceptor fluorophore (at 665 nm). The IC50 for Crystalline Form A* of Compound 1 Sesqui-Maleate was derived from fitting the dose-response % inhibition data to the four-parameter logistic model by Graphpad Prism software.

FLT3 = molecular target: T2, FLT3 (Homo sapiens, UniProt P36888); assay: HTRF KinEASE-TK kinase assay; assay type: biochemical
T2 construct: purchased Life Technologies
T2 sequence (P36888 27-993): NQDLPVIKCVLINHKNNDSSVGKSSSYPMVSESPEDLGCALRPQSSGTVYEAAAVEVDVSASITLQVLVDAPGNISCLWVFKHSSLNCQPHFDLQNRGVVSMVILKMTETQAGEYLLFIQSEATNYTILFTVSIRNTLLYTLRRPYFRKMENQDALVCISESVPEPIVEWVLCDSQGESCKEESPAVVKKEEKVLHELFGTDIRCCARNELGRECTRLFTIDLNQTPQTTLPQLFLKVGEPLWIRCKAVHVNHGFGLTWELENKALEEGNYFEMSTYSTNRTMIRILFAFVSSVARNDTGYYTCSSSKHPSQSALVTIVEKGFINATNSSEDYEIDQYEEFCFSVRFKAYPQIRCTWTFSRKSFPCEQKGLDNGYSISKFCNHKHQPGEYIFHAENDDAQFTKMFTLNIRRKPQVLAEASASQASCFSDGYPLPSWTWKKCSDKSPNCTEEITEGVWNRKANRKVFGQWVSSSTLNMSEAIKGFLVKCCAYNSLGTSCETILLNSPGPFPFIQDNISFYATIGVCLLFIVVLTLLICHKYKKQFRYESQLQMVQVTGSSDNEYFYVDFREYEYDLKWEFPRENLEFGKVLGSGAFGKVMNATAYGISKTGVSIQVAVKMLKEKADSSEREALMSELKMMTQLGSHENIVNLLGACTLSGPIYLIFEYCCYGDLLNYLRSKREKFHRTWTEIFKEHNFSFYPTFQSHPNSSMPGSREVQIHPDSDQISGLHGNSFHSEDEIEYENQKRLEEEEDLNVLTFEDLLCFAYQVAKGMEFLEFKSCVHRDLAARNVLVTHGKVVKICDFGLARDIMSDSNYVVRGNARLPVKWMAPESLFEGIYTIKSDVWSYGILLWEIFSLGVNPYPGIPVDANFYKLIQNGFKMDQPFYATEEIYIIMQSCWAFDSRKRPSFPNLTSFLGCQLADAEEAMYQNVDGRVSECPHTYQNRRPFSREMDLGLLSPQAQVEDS
Procedure: as §1

SRC = molecular target: T3, SRC (Homo sapiens, UniProt P12931); assay: HTRF KinEASE-TK kinase assay; assay type: biochemical
T3 construct: purchased Life Technologies
T3 sequence (P12931 whole entry): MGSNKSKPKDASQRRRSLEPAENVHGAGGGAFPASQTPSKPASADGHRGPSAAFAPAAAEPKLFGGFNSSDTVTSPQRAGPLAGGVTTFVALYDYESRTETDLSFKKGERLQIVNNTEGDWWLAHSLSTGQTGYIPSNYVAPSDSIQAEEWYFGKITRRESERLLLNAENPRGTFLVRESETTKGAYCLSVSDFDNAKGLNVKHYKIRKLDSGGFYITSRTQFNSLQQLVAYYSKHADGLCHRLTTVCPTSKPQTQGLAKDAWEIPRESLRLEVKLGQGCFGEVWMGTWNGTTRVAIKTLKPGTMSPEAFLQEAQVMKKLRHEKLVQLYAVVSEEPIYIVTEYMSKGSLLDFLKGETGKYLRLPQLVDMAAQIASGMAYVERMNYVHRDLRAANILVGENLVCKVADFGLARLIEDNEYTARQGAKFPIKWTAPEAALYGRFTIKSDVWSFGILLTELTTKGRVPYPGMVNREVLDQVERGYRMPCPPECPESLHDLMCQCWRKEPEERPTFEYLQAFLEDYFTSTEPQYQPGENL
Procedure: as §1

TXK = molecular target: T4, TXK (Homo sapiens, UniProt P42681); assay: HTRF KinEASE-TK kinase assay; assay type: biochemical
T4 construct: purchased Life Technologies
T4 sequence (P42681 whole entry): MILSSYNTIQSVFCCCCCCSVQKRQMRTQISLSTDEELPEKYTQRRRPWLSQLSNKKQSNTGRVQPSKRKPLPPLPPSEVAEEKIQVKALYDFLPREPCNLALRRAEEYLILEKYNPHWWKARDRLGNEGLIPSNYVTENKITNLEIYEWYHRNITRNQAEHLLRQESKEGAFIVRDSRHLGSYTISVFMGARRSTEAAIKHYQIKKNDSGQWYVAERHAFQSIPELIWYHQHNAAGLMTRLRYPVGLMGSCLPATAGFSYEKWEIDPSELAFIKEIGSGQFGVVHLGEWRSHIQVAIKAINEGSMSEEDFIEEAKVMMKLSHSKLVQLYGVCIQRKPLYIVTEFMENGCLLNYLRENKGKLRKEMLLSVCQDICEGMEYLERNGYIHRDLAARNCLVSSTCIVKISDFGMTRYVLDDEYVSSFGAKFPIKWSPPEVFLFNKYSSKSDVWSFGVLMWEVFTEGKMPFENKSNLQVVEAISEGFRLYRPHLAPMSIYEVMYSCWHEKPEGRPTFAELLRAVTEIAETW
Procedure: as §1

[2] = test system: human Calu-6 lung adenocarcinoma (K-RAS mutation) tumors; assay: xenograft efficacy study, combination; assay type: in vivo, BALB/C nude mice; conditions: Calu-6 tumors
Procedure: (§2) Human cancer cells were inoculated subcutaneously in the right axilla region of BALB/C nude mice to generate tumor xenografts. On the day of implantation, the cell culture medium was replaced with fresh medium. Three hours later, the media was removed and the cells were collected and re-suspended in cold (4° C.) PBS prior to inoculation. The right axilla region of each mouse was cleaned with 70% ethanol prior to cell inoculation. Each animal was injected subcutaneously with desired cells in 200 μl of cell suspension in the right front flank via a 26-gauge needle. After implantation tumor volumes were measured twice weekly in two dimensions using a calliper. Tumor volume was calculated using the formula: V=0.5×(a×b^2) where a and b are the long and short diameters of the tumor, respectively.
For in vivo efficacy studies, when the average tumor size reaches 100˜200 mm^3, animals were assigned into desired number of groups with 6-10 mice per group using a stratified randomization procedure. […] Body weight was assessed immediately before dosing and the volume dosed was adjusted accordingly. Individual body weights and tumor volumes were determined twice weekly, with mice being monitored daily for clinical signs of toxicity for the duration of the study. […] All group data was analyzed using the t test. […]
Tumor growth inhibition (TGI) was calculated using the following formula: […]

[3] = test system: ERK1/2 phosphorylation in A375 xenografts; assay: PD study, p-ERK1/2 in tumor tissue (AlphaScreen SureFire); assay type: in vivo; conditions: A375 xenografts in mice, oral administration
Procedure: as §2
(§3) For PD study, when the average tumor size reaches 140-900 mm^3, animals were assigned into desired number of groups with 4 mice per group using a stratified randomization procedure. The groups consisted of a control group (no drug treatment), and different dose levels of Crystalline Form A* of Compound 1 Sesqui-Maleate treatment groups (ranged from 1-20 mg/kg). All doses were based on free-base weight. Drugs were administered by oral gavage once (qd) or twice (bid) daily. […] Body weight was assessed immediately before dosing and the volume dosed was adjusted accordingly. […]

[4] = test system: p-ERK in Calu-6 K-RAS mutant non-small cell lung adenocarcinoma xenograft models; assay: PD study, p-ERK in tumor tissue, combination; assay type: in vivo, mice; conditions: Calu-6 xenograft, with MEK inhibitor AZD6244
Procedure: as §2, §3

[5] = pharmacokinetic study (LC-MS/MS); assay type: in vivo, Sprague-Dawley rats; conditions: rats
Description: The fully-validated LC-MS/MS method was well used for the pharmacokinetic (PK) studies of Crystalline Form A* of Compound 1 Sesqui-Maleate in Sprague-Dawley rats and beagle dogs following single- and multiple-dose administrations.

[6] = test system: BRAF V600E and KRAS cancers; assay: Phase I clinical study; assay type: in vivo, human; conditions: capsules, 5-50 mg single doses, 25 subjects

Structure (SMILES): O=C1CCc2c(Oc3ccc4c(c3)[C@@H]3[C@H](O4)[C@H]3c3nc4ccc(C(F)(F)F)cc4[nH]3)ccnc2N1 [5-(((1R,1aS,6bR)-1-(6-(trifluoromethyl)-1H-benzo[d]imidazol-2-yl)-1a,6b-dihydro-1H-cyclopropa[b]benzofuran-5-yl)oxy)-3,4-dihydro-1,8-naphthyridin-2(1H)-one sesqui-maleate salt]
- purity after stability study ([1]; 24 month at 25 C/75% RH): 98.5%
- crystal form and optical purity changes ([1]; 25° C./60% RH up to 18 months and 40° C./75% RH up to 6 months): no crystal form and optical purity changes were observed
- Assay w/w ([1]; T0, 25° C./60% RH study): 99.1%
- Assay w/w ([1]; T0, 40° C./75% RH study): 99.1%
- Assay w/w ([1]; T6: 6 months at 40° C./75% RH): 98.9%
- Assay w/w ([1]; T18: 18 months at 25° C./60% RH): 98.8%
- enzyme inhibition (EPHA2): potently inhibits
- IC50 (EPHA2; ATP at KM): 61 nM
- enzyme inhibition (FLT3): potently inhibits
- IC50 (FLT3; ATP at KM): 25 nM
- enzyme inhibition (SRC): weak inhibition
- IC50 (SRC; ATP at KM): 917 nM
- enzyme inhibition (TXK): weak inhibition
- IC50 (TXK; ATP at KM): 4800 nM
- antitumor activity in combination ([2]; combined with docetaxel): remarkable antitumor activity
- antitumor activity in combination ([2]; combined with the MEK inhibitor selumetinib (AZD6244)): remarkable antitumor activity
- inhibition of ERK1/2 phosphorylation in tumor [3]: time-dependent and dose-dependent inhibition
- effect on inhibiting p-ERK in combination [4]: strong synergistic effect
- bioavailability ([5]; Sprague-Dawley, rat, in vivo, po): 51 to 102%
- half-life ([5]; Sprague-Dawley, rat, in vivo, after oral administration, read-out: elimination half-life): 4.4 to 9.4 h
- accumulation after multiple dosing [5]: ~2 fold
- kinetics over dose range ([5]; 0.5 to 15 mg/kg): linear
- clinical safety of single doses [6]: safe and well tolerated
